Assay results: the Deep4Chem optical property database
“And” between values parts separate entries of the source, which are not always exact repeats. Identical values can stand only once. Blank lines part the entries; values can stand above or below the compound they belong to.

Test: solvent given as SMILES

Structure (SMILES): [NH-]c1cc(N)cc(-c2nc3ccccc3s2)c1
- emission maximum (in O): 484 nm

Structure (SMILES): CC(C)(C)[Si](C)(C)C#Cc1c2c(=O)c3ccccc3c2c(C#C[Si](C)(C)C(C)(C)C)c2c(=O)c3ccccc3c12
- emission maximum (in ClC(Cl)Cl): 571 nm

Structure (SMILES): CCCCC(CC)Cn1c2ccc(C(=C(C#N)C#N)c3ccccc3)cc2c2c(-c3ccc(Br)cc3)c3c(c(-c4ccc(Br)cc4)c21)c1cc(C(=C(C#N)C#N)c2ccccc2)ccc1n3CC(CC)CCCC (stereo not drawn)
- emission maximum (in C1CCOC1): 584 nm
- emission maximum (in CC#N): 536 nm
- emission maximum (in CCO): 576 nm
- emission maximum (in CCOC(C)=O): 582 nm
- emission maximum (in CN(C)C=O): 535 nm
- emission maximum (in Cc1ccccc1): 540 nm
- emission maximum (in ClCCl): 597 nm
- emission maximum (in c1ccccc1): 543 nm

Structure (SMILES): O=c1c2ccccc2oc2cc(N3c4ccccc4C4(c5ccccc5Oc5ccccc54)c4ccccc43)ccc12
- emission maximum (in Cc1ccccc1): 472 nm

Structure (SMILES): CCCCCCCCCCCCc1sc(CCCCCC)c2c3cc(CCCCCC)sc3c3sc(CCCCCC)cc3c12
- emission maximum (in ClC(Cl)Cl): 423 nm

Structure (SMILES): Cc1ccc(-c2c3nc(c(-c4ccc(C)cc4)c4ccc([nH]4)c(-c4ccc(OC(=O)C(C)c5ccccc5)cc4)c4nc(c(-c5ccc(C)cc5)c5ccc2[nH]5)C=C4)C=C3)cc1 (stereo not drawn)
- emission maximum (in ClCCl): 653 nm

Structure (SMILES): N#CC(C#N)=Cc1nc2ccc(C#Cc3ccc(N(c4ccccc4)c4ccccc4)cc3)cc2s1
- emission maximum (in Cc1ccccc1): 617 nm

Structure (SMILES): c1ccc(-c2nc(-c3ccccc3)nc(-c3ccccc3-n3c4ccccc4c4c5oc6ccccc6c5ccc43)n2)cc1
- emission maximum (in C1CCCCC1): 438.08 nm
- emission maximum (in C1CCOC1): 492.26 nm
- emission maximum (in Cc1ccccc1): 474.61 nm
- emission maximum (in O=P(c1ccccc1)(c1ccccc1)c1ccccc1Oc1ccccc1P(=O)(c1ccccc1)c1ccccc1): 456.95 nm

Structure (SMILES): [NH3+]c1ccc2c(c1)Cc1ccccc1-2
- emission maximum (in O): 314 nm

Structure (SMILES): CN(C)c1ccc2c(-c3cc(C(=O)[O-])ccc3C(=O)[O-])c3ccc(=[N+](C)C)cc-3oc2c1
- emission maximum (in CCO): 564 nm
- emission maximum (in O): 575 nm

Structure (SMILES): CC(C)(C)c1ccc(-c2nc3c4ccc(-c5ccc6ccc7cccc8ccc5c6c78)cc4c4cc(-c5ccc6ccc7cccc8ccc5c6c78)ccc4c3n2-c2ccc(C(C)(C)C)cc2)cc1
- emission maximum (in C1CCOC1): 442 nm
- emission maximum (in C1COCCO1): 432 nm
- emission maximum (in CC#N): 460 nm
- emission maximum (in CCCCCC): 428 nm
- emission maximum (in CCCCOCCCC): 427 nm
- emission maximum (in CCN(CC)CC): 428 nm
- emission maximum (in CCOC(C)=O): 440 nm
- emission maximum (in CCOCC): 432 nm
- emission maximum (in CN(C)C=O): 459 nm
- emission maximum (in Cc1ccccc1): 433 nm
- emission maximum (in ClC=C(Cl)Cl): 437 nm
- emission maximum (in ClCCl): 450 nm

Structure (SMILES): CCN(C(C)=O)c1cc2c(cc1C)C(c1ccccc1C(=O)O)=C1CCCC(/C=C/C3=[N+](C)c4ccccc4C3(C)C)=C1O2
- emission maximum (in CCO): 687 nm

Structure (SMILES): C#CC1CN2CCC1CC2[C@@H](O)c1ccnc2ccc(OC)cc12 (stereo partly drawn)
- emission maximum (in C1CCOC1): 361 nm
- emission maximum (in CC#N): 358 nm
- emission maximum (in CCCC#N): 359 nm
- emission maximum (in Cc1ccccc1): 360 nm
- emission maximum (in ClCCl): 363 nm

Structure (SMILES): C(#Cc1c(C#Cc2cccs2)c(C#Cc2cccs2)c(C#Cc2cccs2)c(C#Cc2cccs2)c1C#Cc1cccs1)c1cccs1
- emission maximum (in ClCCl): 453 nm

Structure (SMILES): Nc1nc2ccc(F)cc2[n+]([O-])n1
- emission maximum (in CC#N): 491 nm
- emission maximum (in O): 526 nm

Structure (SMILES): CCCCCC(CC)C1(C(CC)CCCCC)c2ccccc2-c2ccc(C#Cc3cc(C#Cc4ccc5c(c4)C(C(CC)CCCCC)(C(CC)CCCCC)c4ccccc4-5)c4ccc5c(C#Cc6ccc7c(c6)C(C(CC)CCCCC)(C(CC)CCCCC)c6ccccc6-7)cc(C#Cc6ccc7c(c6)C(C(CC)CCCCC)(C(CC)CCCCC)c6ccccc6-7)c6ccc3c4c65)cc21 (stereo not drawn)
- emission maximum (in C1CCCCC1): 507 nm
- emission maximum (in C1CCOC1): 513 nm
- emission maximum (in CCOC(C)=O): 509 nm
- emission maximum (in CN(C)C=O): 518 nm
- emission maximum (in Cc1ccccc1): 513 nm
- emission maximum (in ClC(Cl)Cl): 514 nm
- emission maximum (in ClCCl): 514 nm

Structure (SMILES): O=S1(=O)C2=C(c3ccc(N(c4ccccc4)c4ccccc4)cc31)C1(C3=C(c4ccccc41)S(=O)(=O)c1cc(N(c4ccccc4)c4ccccc4)ccc13)c1ccccc12
- emission maximum (in C1CCOC1): 561 nm
- emission maximum (in CC#N): 598 nm
- emission maximum (in CCCCCC): 521 nm
- emission maximum (in Cc1ccccc1): 543 nm
- emission maximum (in ClCCl): 577 nm

Structure (SMILES): c1ccc(-c2cc(-c3ccc4ccc5c(-c6ccnc(-c7ccccn7)c6)ccc6ccc3c4c65)ccn2)nc1
- emission maximum (in C1CCOC1): 408 nm
- emission maximum (in CC#N): 418.01 nm
- emission maximum (in CCC#N): 408 nm
- emission maximum (in CCCC#N): 408 nm
- emission maximum (in CCCCCC): 397.99 nm
- emission maximum (in CCCO): 429 nm
- emission maximum (in CCO): 430 nm
- emission maximum (in CO): 430 nm
- emission maximum (in Cc1ccccc1): 410.17 nm

Structure (SMILES): C1=C(c2ccc(-c3cccs3)s2)CCCC1
- emission maximum (in C1CCOC1): 423 nm
- emission maximum (in CC#N): 415 nm
- emission maximum (in CCCCCC): 411 nm
- emission maximum (in CCO): 445 nm
- emission maximum (in OCCOCCO): 446 nm
- emission maximum (in c1ccncc1): 423 nm

Structure (SMILES): CN1CCCc2cc3c(C(F)(F)F)cc(=O)oc3cc21
- emission maximum (in C1CCCCC1): 439 nm
- emission maximum (in CC#N): 510 nm
- emission maximum (in CCO): 515 nm

Structure (SMILES): CC1(C)C(/C=C/C2=C(Cl)C(=C/C=C3/N(Cc4ccccc4)c4ccccc4C3(C)C)/CCC2)=[N+](Cc2ccccc2)c2ccccc21
- emission maximum (in CO): 813 nm

Structure (SMILES): Fc1nc(F)c(F)c(C#Cc2nccnc2C#Cc2c(F)c(F)nc(F)c2F)c1F
- emission maximum (in CC#N): 440 nm

Structure (SMILES): N#Cc1cc(N2c3ccccc3Oc3ccccc32)c(N2c3ccccc3Oc3ccccc32)cc1C#N
- emission maximum (in c1ccc2c(c1)c1ccccc1n2-c1ccc(-c2ccc(-n3c4ccccc4c4ccccc43)cc2)cc1): 612 nm

Structure (SMILES): CCCCCCCCC1(CCCCCCCC)c2cc(-c3ccc(C(=O)OC)cc3)ccc2-c2ccc(-c3ccc(C(=O)OC)cc3)cc21
- emission maximum (in ClC(Cl)Cl): 388 nm

Structure (SMILES): CNc1cc2nc3cc(Br)c(Br)cc3nc2cc1NC
- emission maximum (in CCO): 542 nm

Structure (SMILES): Cc1cc(C)c(C2=C3C=C(/C=C/C(=O)OC(C)(C)C)C=[N+]3[B-](F)(F)n3cc(/C=C/C(=O)OC(C)(C)C)cc32)c(C)c1
- emission maximum (in ClCCl): 610 nm

Structure (SMILES): CCN(CC)c1ccc(/C=C2\CC/C(=C\c3ccc(N(c4ccc(/C=C5\CC/C(=C\c6ccc(N(CC)CC)cc6)C5=C(C#N)C#N)cc4)c4ccc(/C=C5\CC/C(=C\c6ccc(N(CC)CC)cc6)C5=C(C#N)C#N)cc4)cc3)C2=C(C#N)C#N)cc1
- emission maximum (in CN(C)C=O): 720 nm

Structure (SMILES): Cc1ccccc1
- emission maximum (in C1CCCCC1): 286.62 nm

Structure (SMILES): N#CC1=c2cc3c4c(c2Oc2c1cc1c5c2CCCN5CCC1)CCC[N+]=4CCC3
- emission maximum (in CCO): 700 nm

Structure (SMILES): Cc1ccc(C2=C3C=c4c(oc5ccccc45)=[N+]3[B-](F)(F)n3c2cc2c4ccccc4oc23)cc1
- emission maximum (in C1CCCCC1): 596.5 nm
- emission maximum (in C1CCOC1): 596.5 nm
- emission maximum (in CC#N): 595.5 nm
- emission maximum (in CCOC(C)=O): 594.5 nm
- emission maximum (in CN(C)C=O): 598.5 nm
- emission maximum (in CO): 594.5 nm
- emission maximum (in Cc1ccccc1): 603 nm
- emission maximum (in ClCCl): 599 nm and 597 nm

Structure (SMILES): O=C1C(=c2c(=O)c3c4ccccc4cc4cc5ccccc5c2c43)C(=O)c2ccccc21
- emission maximum (in C1CCOC1): 583 nm
- emission maximum (in CC#N): 604 nm
- emission maximum (in CCCCCC): 556 nm
- emission maximum (in Cc1ccccc1): 578 nm
- emission maximum (in ClCCl): 599 nm

Structure (SMILES): N#Cc1nc(N(Cc2ccccc2Cl)Cc2ccccc2Cl)c(C#N)nc1N(Cc1ccccc1Cl)Cc1ccccc1Cl
- emission maximum (in ClC(Cl)Cl): 567 nm

Structure (SMILES): N#CC(C#N)=Cc1ccc2c(c1)c1ccccc1n2-c1cc2ccccc2c2ccccc12
- emission maximum (in CC#N): 503 nm
- emission maximum (in CCCCC): 451 nm
- emission maximum (in Cc1ccccc1): 445 nm
- emission maximum (in ClCCl): 480 nm

More lines, now with the values ahead:

- emission maximum (in CC#N): 411 nm
- emission maximum (in CCCCCC): 405 nm
- emission maximum (in CO): 411 nm
- emission maximum (in CS(C)=O): 416 nm
- emission maximum (in ClC(Cl)Cl): 418 nm
Structure (SMILES): CCC1=C(C)C2=Cc3ccccc3B(O)N2C1=O

- emission maximum (in CC#N): 516 nm
- emission maximum (in CCCCCC): 524 nm
- emission maximum (in CO): 521 nm
- emission maximum (in ClC(Cl)Cl): 527 nm
- emission maximum (in ClCCl): 522 nm
Structure (SMILES): CC1=CC(C)=[N+]2C1=C(c1ccc3cccnc3n1)c1c(C)cc(C)n1[B-]2(F)F

- emission maximum (in ClCCl): 421 nm
Structure (SMILES): COc1ccc(-c2cn3cc(C)c[n+]3[n-]2)cc1

- emission maximum (in CC#N): 471 nm
Structure (SMILES): Oc1ccc2ccccc2c1/C=N/C1CCCCC1/N=C/c1c(O)ccc2ccccc12 (stereo not drawn)

- emission maximum (in ClCCl): 430 nm
Structure (SMILES): CCOC(=O)c1c(-c2cc3cc4c(cc3oc2=O)OC(C)(C)CC4)nn(-c2ccccc2)c1C(=O)OCC

- emission maximum (in C1CCCCC1): 516 nm
- emission maximum (in CC#N): 514.5 nm
- emission maximum (in CCO): 514.5 nm
- emission maximum (in CCOC(C)=O): 514.5 nm
- emission maximum (in CO): 513.5 nm
- emission maximum (in OCC(F)(F)F): 509.5 nm
Structure (SMILES): Cc1ccc(C2=C3C=CC=[N+]3[B-](F)(F)n3cccc32)cc1

- emission maximum (in ClCCl): 493 nm
Structure (SMILES): CCOC(=O)c1ccc(C2CC(c3cccc4ccccc34)=NN2c2ccc(C)cc2)cc1 (stereo not drawn)

- emission maximum (in CN(C)C=O): 430 nm
Structure (SMILES): O=C([O-])c1ccc(C(=O)[O-])c2cc3ccccc3cc12

- emission maximum (in C1CCCCC1): 374 nm
- emission maximum (in C1COCCO1): 396 nm
- emission maximum (in CC#N): 398 nm
- emission maximum (in CC(C)(C)O): 407 nm
- emission maximum (in CC(C)O): 412 nm
- emission maximum (in CCCCCC): 374 nm
- emission maximum (in CCCCO): 411 nm
- emission maximum (in CCOC(C)=O): 394 nm
- emission maximum (in CN(C)C=O): 404 nm
- emission maximum (in CO): 412 nm
- emission maximum (in ClCCl): 398 nm
- emission maximum (in O): 424 nm
Structure (SMILES): O=C1Nc2ccccc2/C1=C/C(=O)c1ccccc1

- emission maximum (in CCCCCC): 376 nm
- emission maximum (in CO): 376 nm
- emission maximum (in ClCCl): 377 nm
Structure (SMILES): CC(C)c1ccc2ccc3cccc4ccc1c2c34

- emission maximum (in C1CCOC1): 360 nm
Structure (SMILES): O=C1c2cc(-c3ccccc3)ccc2-c2ccc(-c3ccccc3)cc21

- emission maximum (in CCCCCCCCCCCCCC): 474 nm
- emission maximum (in ClCCl): 480 nm
Structure (SMILES): c1csc(-c2ccc(-c3ccc(-c4cccs4)s3)s2)c1

- emission maximum (in CC#N): 352 nm
- emission maximum (in CO): 360 nm
Structure (SMILES): CC(C)CCCN1c2ccccc2CCc2ccccc21

- emission maximum (in ClC(Cl)Cl): 397 nm
Structure (SMILES): CC(C)(C)c1cccc2c1oc1nc3oc4cc(-n5c6ccccc6c6ccccc65)ccc4c3cc12

- emission maximum (in C1CCOC1): 423 nm
Structure (SMILES): COc1ccc(-c2cnc3nn4ccccc4c3c2)cc1

- emission maximum (in O): 680 nm
Structure (SMILES): COc1ccc2c(c1)CCC1=C(c3ccccc3)C3=C(c4ccc5cccc(O)c5n4)c4c(-c5ccccc5)c5c(n4[B-](F)(F)[N+]3=C12)-c1ccc(OC)cc1CC5
